Laboratory results as given in the RepoRT retention time repository.

assay: RP, Waters ACQUITY Premier BEH C18, 100 × 2.1 mm, 1.7 µm, 40 °C, 0.3 to 0.4 mL/min, estimated dead time 0.73 min; A: water + 0.1% formic acid; B: acetonitrile + 0.1% formic acid; gradient (min/%B) 0/0.5 0.1/0.5 10/80 10.1/99.5 12/0.5 12.1/0.5 14.5/0.5; conditions: stereoisomer not certain

| SMILES | LC retention time [min] |
| --- | --- |
| O=C(O)c1cccnc1C(=O)O [QUINOLINATE] | 1.61 |
| O=c1cc[nH]c2c(O)cccc12 [QUINOLINE-4,8-DIOL] | 4.14 |
| OCC1OC(OCC2OC(OC3(CO)OC(CO)C(O)C3O)C(O)C(O)C2O)C(O)C(O)C1O (stereo not given) [RAFFINOSE] | 0.962 |
| CC(=O)Oc1cccc(O)c1 [RESORCINOL MONOACETATE] | 5.71 |
| Oc1ccc(C=Cc2cc(O)cc(O)c2)cc1 [RESVERATROL] | 5.3 |
| CC(C=CC1=C(C)CCCC1(C)C)=CC=CC(C)=CC(=O)O [RETINOATE] | 9.05 |
| CC1OC(O)C(O)C(O)C1O (stereo not given) [RHAMNOSE] | 0.913 |
| O=C(O)c1cc(O)c2c(c1)C(=O)c1cccc(O)c1C2=O [RHEIN] | 7.07 |
| Cc1cc2nc3c(=O)[nH]c(=O)nc-3n(CC(O)C(O)C(O)CO)c2cc1C (stereo not given) [RIBOFLAVIN] | 4.4 |
| Cc1cn(C2OC(CO)C(O)C2O)c(=O)[nH]c1=O (stereo not given) [RIBOTHYMIDINE] | 1.24 |
| O=C(C=Cc1ccc(O)c(O)c1)OC(Cc1ccc(O)c(O)c1)C(=O)O (stereo not given) [ROSMARINATE] | 5.44 |
| C=C(C)C1Cc2c(ccc3c2OC2COc4cc(OC)c(OC)cc4C2C3=O)O1 (stereo not given) [ROTENONE] | 7.55 |
| CC1OC(OCC2OC(Oc3c(-c4ccc(O)c(O)c4)oc4cc(O)cc(O)c4c3=O)C(O)C(O)C2O)C(O)C(O)C1O (stereo not given) [RUTIN] | 4.25 |
| Nc1ncnc2c1ncn2C1OC(CSCCC(N)C(=O)O)C(O)C1O (stereo not given) [S-ADENOSYLHOMOCYSTEINE] | 3.08 |
| C=CCSCC(N)C(=O)O (stereo not given) [S-ALLYLCYSTEINE] | 1.22 |
| OCc1ccccc1OC1OC(CO)C(O)C(O)C1O (stereo not given) [SALICIN] | 2.95 |
| NC(=O)c1ccccc1O [SALICYLAMIDE] | 5.04 |
| O=C(O)c1ccccc1O [SALICYLATE] | 5.97 |
| O=C(O)CNC(=O)c1ccccc1O [SALICYLURIC ACID] | 4.56 |
| CC1NCCc2cc(O)c(O)cc21 (stereo not given) [SALSOLINOL] | 2.56 |
| C=CC(C)(O)CCC1C(C)(O)CCC2C(C)(C)CCCC21C (stereo not given) [SCLAREOL] | 8.18 |
| COc1cc2ccc(=O)oc2cc1OC [SCOPARONE] | 5.34 |
| COc1cc2ccc(=O)oc2cc1O [SCOPOLETIN] | 4.62 |

| SMILES | LC retention time [min] |
| --- | --- |
| O=C(O)CCCCCCCCC(=O)O [SEBACATE] | 6.03 |
| COc1cc(CC(COC2OC(CO)C(O)C(O)C2O)C(COC2OC(CO)C(O)C(O)C2O)Cc2ccc(O)c(OC)c2)ccc1O (stereo not given) [SECOISOLARICIRESINOL DIGLUCOSIDE] | 4.58 |
| C[Se]CCC(N)C(=O)O (stereo not given) [SELENOMETHIONINE] | 1.09 |
| NCCc1c[nH]c2ccc(O)cc12 [SEROTONIN] | 3.44 |
| COc1cc(C2Oc3cc(C4Oc5cc(O)cc(O)c5C(=O)C4O)ccc3OC2CO)ccc1O (stereo not given) [SILIBININ] | 5.88 |
| COc1cc(C=CC(=O)O)cc(OC)c1O [SINAPIC ACID] | 4.58 |
| C=CCC(=NOS(=O)(=O)O)SC1OC(CO)C(O)C(O)C1O (stereo not given) [SINIGRIN] | 2.03 |
| CC=CC=CC(=O)O [SORBATE] | 5.71 |
| CCCCCCCCCCCCCCCC(O)C(N)CO (stereo not given) [SPHINGANINE] | 7.51 |
| CCCCCCCCCCCCCC=CC(O)C(N)CO (stereo not given) [SPHINGOSINE] | 7.39 |
| OCC1OC(OCC2OC(OCC3OC(OC4(CO)OC(CO)C(O)C4O)C(O)C(O)C3O)C(O)C(O)C2O)C(O)C(O)C1O (stereo not given) [STACHYOSE] | 0.921 |
| CCCCCCCCCCCCCCCCCC(=O)O [STEARATE] | 11 |
| CCCCCCCCCCCCCCCCCC(=O)NCCO [STEAROYLETHANOLAMIDE] | 9.74 |
| O=C(O)CCCCCCC(=O)NCC(=O)O [SUBERYLGLYCINE] | 3.79 |
| O=C(O)CCC(=O)O [SUCCINATE] | 1.76 |
| CS(=O)CCCCN=C=S (stereo not given) [SULFORAPHANE] | 4.72 |
| O=C(O)c1ccc(CO)o1 [SUMIKI'S ACID] | 3.65 |
| COc1cc(C(=O)O)cc(OC)c1O [SYRINGIC ACID] | 3.98 |
| COc1ccc(-c2cc(=O)c3c(OC)c(OC)c(OC)c(OC)c3o2)cc1 [TANGERETIN] | 7.26 |
| CC(CCC(=O)NCCS(=O)(=O)O)C1CCC2C3C(O)CC4CC(O)CCC4(C)C3CC(O)C12C (stereo not given) [TAUROCHOLIC ACID] | 5.85 |
| NCCc1c[nH]c2ccccc12 [TRYPTAMINE] | 4.34 |
| NCCc1ccc(O)cc1 [TYRAMINE] | 2.81 |

The remaining lines, values ahead:

| LC retention time [min] | SMILES |
| --- | --- |
| 7.44 | CCCCCCCCCCCCCC(=O)OC(CC(=O)[O-])C[N+](C)(C)C (stereo not given) [TETRADECANOYLCARNITINE] |
| 5.18 | O=c1cc(C2Oc3cc(O)cc(O)c3CC2O)cc2c(C3Oc4cc(O)cc(O)c4CC3O)cc(O)c(O)c2c1O (stereo not given) [THEAFLAVIN] |
| 3.71 | Cn1cnc2c1c(=O)[nH]c(=O)n2C [THEOBROMINE] |
| 3.96 | Cn1c(=O)c2[nH]cnc2n(C)c1=O [THEOPHYLLINE] |
| 4.31 | CSc1ncnc2nc[nH]c12 [THIOPURINE S-METHYLETHER] |
| 0.942 | NC(N)=S [THIOUREA] |
| 2.73 | Cc1cn(C2CC(O)C(COP(=O)(O)O)O2)c(=O)[nH]c1=O (stereo not given) [THYMIDINE-MONOPHOSPHATE] |
| 3.56 | Cc1cn(C2CC(O)C(CO)O2)c(=O)[nH]c1=O (stereo not given) [THYMIDINE] |
| 2.99 | Cc1c[nH]c(=O)[nH]c1=O [THYMINE] |
| 5.78 | Cc1ccc(C(C)C)c(O)c1 [THYMOL] |
| 6.62 | NC(Cc1cc(I)c(Oc2cc(I)c(O)c(I)c2)c(I)c1)C(=O)O (stereo not given) [THYROXINE] |
| 6.45 | O=C(O)/C=C/c1ccccc1 [TRANS-CINNAMATE] |
| 0.911 | OCC1OC(OC2OC(CO)C(O)C(O)C2O)C(O)C(O)C1O (stereo not given) [TREHALOSE] |
| 4.35 | OCC1OC(Oc2ccc3c(c2)OCC2c4cc5c(cc4OC32)OCO5)C(O)C(O)C1O (stereo not given) [TRIFOLIRHIZIN] |
| 2.44 | NC(Cc1ccc(O)cc1)C(=O)O (stereo not given) [TYROSINE] |
| 4.61 | O=c1ccc2ccc(O)cc2o1 [UMBELLIFERONE] |
| 6.09 | O=C(O)CCCCCCCCCC(=O)O [UNDECANEDIOIC ACID] |
| 1.91 | O=C(O)c1c[nH]c(=O)[nH]c1=O [URACIL 5-CARBOXYLATE] |
| 1.39 | O=c1cc[nH]c(=O)[nH]1 [URACIL] |
| 1.52 | O=c1[nH]c(=O)c2[nH]c(=O)[nH]c2[nH]1 [URATE] |
| 1.27 | NC(=O)NCCC(=O)O [UREIDOPROPIONATE] |
| 1.26 | O=c1ccn(C2OC(COP(=O)(O)O)C(O)C2O)c(=O)[nH]1 (stereo not given) [URIDINE MONOPHOSPHATE] |
| 2.45 | O=c1ccn(C2OC(CO)C(O)C2O)c(=O)[nH]1 (stereo not given) [URIDINE] |
| 1.39 | O=C(O)C=Cc1cnc[nH]1 [UROCANATE] |
| 1.21 | CC(C)C(N)C(=O)O (stereo not given) [VALINE] |
| 3.91 | COc1cc(C(=O)O)ccc1O [VANILLIC ACID] |
| 2.11 | O=c1[nH]c(=O)c2[nH]cnc2[nH]1 [XANTHINE] |
| 1.87 | O=c1[nH]c(=O)c2ncn(C3OC(COP(=O)(O)O)C(O)C3O)c2[nH]1 (stereo not given) [XANTHOSINE-MONOPHOSPHATE] |
| 3.45 | O=c1[nH]c(=O)c2ncn(C3OC(CO)C(O)C3O)c2[nH]1 (stereo not given) [XANTHOSINE] |
| 3.98 | O=C(O)c1cc(=O)c2cccc(O)c2[nH]1 [XANTHURENATE] |
